Data from EP4790046A1, “NOVEL COMPOUND DERIVED FROM MYRISTICA FRAGRANS, AND ANTICANCER COMPOSITION COMPRISING SAME” (Korea Institute of Science and Technology, priority 2023, dated 2025).

What was measured:
AGS = test: alamarBlue cell viability (survival rate, IC50), AGS; assay type: cell-based; conditions: AGS (gastric cancer)
From the text: A p-value < 0.05 was considered statistically significant.

SW48 cells = test: Apoptosis, Annexin V-FITC/PI staining, flow cytometry, SW48; assay type: cell-based; conditions: for Apoptosis distribution (%), Q1 / Apoptosis distribution (%), Q2 / Apoptosis distribution (%), Q3 / Apoptosis distribution (%), Q4: 20 hours; for Apoptosis distribution (%), Q2: Annexin V-FITC+/PI+ (late apoptosis and cell death); for Apoptosis distribution (%), Q3: Annexin V-FITC+/PI- (early apoptosis); for Apoptosis distribution (%), Q4: Annexin V-FITC-/PI- (healthy population)
Procedure: 23132/87 and SW48 cells were seeded at densities of 5 × 10^5 and 7 × 10^5 cells/well in a 6-well plate and cultured for 24 hours. […] After treatment, cells were harvested and stained using the Annexin V-FITC Early Apoptosis Detection Kit (6592, Cell Signaling Technology, USA). Flow cytometry (BD FACSVerse Cell Analyzer and FlowJo software, BD Biosciences, USA) was applied to analyze the samples based on 10,000 events.
Student's t-test was performed for statistical analysis between the 2 concentrations of the same compound.

23132/87 cells = test: Xenograft mouse model, tumor volume, 23132/87 (gastric cancer); assay type: in vivo, BALB/c/nu/nu mice; conditions: 10 mg/kg intraperitoneal on alternate days, to day 27
Procedure: Tumor volume and body weight were measured twice weekly.

What does the source list for `C=CCc1cc(OC)c(O[C@H](C)[C@H](c2ccc(O)c(OC)c2)c2ccc(O)c(C(=O)CCCCCCCCc3ccc(O)cc3)c2O)c(OC)c1` [Compound 3, Myricone C]?
Cancer cell line survival rate (%) (AGS; compound 10 µM, 48 hours): 0.16%; IC50 (AGS; Homo sapiens, 2.5-40 µM, positive control = doxorubicin): 3.62 µM; Apoptosis distribution (%), Q1 (SW48 cells; SW48, 5 µM): 7.41%; Apoptosis distribution (%), Q2 (SW48 cells; SW48, 5 µM): 13.80%; Apoptosis distribution (%), Q3 (SW48 cells; SW48, 5 µM): 13.73%; Apoptosis distribution (%), Q4 (SW48 cells; SW48, 5 µM): 65.10%; Apoptosis distribution (%), Q1 (SW48 cells; SW48, 10 µM): 4.97%; Apoptosis distribution (%), Q2 (SW48 cells; SW48, 10 µM): 22.43%; Apoptosis distribution (%), Q3 (SW48 cells; SW48, 10 µM): 18.77%; Apoptosis distribution (%), Q4 (SW48 cells; SW48, 10 µM): 53.87%; Q2 ratio (SW48 cells; SW48, 5 µM): 13.80% ± 0.65%; Q3 ratio (SW48 cells; SW48, 5 µM): 13.73% ± 0.92%; increase in the Q2 population, dose-based comparison (SW48 cells; SW48, 5 µM to 10 µM): over 8%; Q2 (Annexin V-FITC+/PI+) (SW48 cells; SW48, 10 µM): 22.43% ± 0.30%; Q2 increase compared to the control (SW48 cells; SW48, 10 µM): over 8%; Q3 ratio (SW48 cells; SW48, 10 µM): 18.77% ± 1.07%; Q4 distribution reduction compared to the control group (SW48 cells; SW48, 10 µM): 9.43%; apoptotic and dead cell population (Q2 and Q3) increase over DMSO (SW48 cells; SW48, 10 µM): ~10%; Q4 ratio reduction on changing the concentration (SW48 cells; SW48, from 5 µM to 10 µM): approximately 11.23%; tumor volume (23132/87 cells): smallest tumor volume was observed starting on day 13
